Laboratory results as given in patent US20140113093A1, “Polymers with reduced estrogenic activity” (SOLVAY SPECIALITY POLYMERS USA, LLC, priority 2011, published 2014).
pEC50: −log10 of the molar value.

What follows are compounds tested against T1, Estrogen receptor α (ERα) (Homo sapiens, UniProt P03372) (assay: GeneBLAzer Cell-Based Nuclear Receptor Assay (beta-lactamase reporter), EC50 response value to ERα). Conditions: ER-α-UAS-bla GripTite 293 cells, agonist mode, 16-24 hours at 37° C., monomers tested at 7 to 250000 nM.
T1 construct: host or cells: ER-α-UAS-bla GripTite 293 cells
T1 sequence (P03372 311-547 limits assumed): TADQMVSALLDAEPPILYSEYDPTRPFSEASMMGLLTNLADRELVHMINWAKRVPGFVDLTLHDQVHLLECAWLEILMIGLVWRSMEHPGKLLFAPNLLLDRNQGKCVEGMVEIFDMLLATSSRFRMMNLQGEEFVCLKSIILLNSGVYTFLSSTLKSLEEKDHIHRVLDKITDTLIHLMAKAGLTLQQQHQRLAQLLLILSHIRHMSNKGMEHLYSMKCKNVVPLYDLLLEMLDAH
Protocol: The plate is incubated for 16-24 hours at 37° C./5% CO2 in a humidified incubator. […] The plate is read on a fluorescence plate reader.
The following equations are used for each set of data points: […]

Row | SMILES | pEC50
1 | CC(C)(c1ccc(O)cc1)c1ccc(C(C)(C)c2ccc(O)cc2)cc1 [BisP, α,α′-Bis(4-hydroxyphenyl)-1,4-diisopropylbenzene, reference compound] | < 4.60
2 | O=S(=O)(c1ccc(O)cc1)c1ccc(O)cc1 [Bisphenol S, 4,4′-dihydroxy-diphenylsulfone, reference compound] | 5.38
3 | O=S(=O)(c1ccc(O)cc1)c1ccc(-c2ccc(S(=O)(=O)c3ccc(O)cc3)cc2)cc1 [Example 1 (HPS), Hydroxysulfonebiphenyl] | < 4.10
4 | O=S(=O)(c1ccc(Oc2ccc(O)cc2)cc1)c1ccc(Oc2ccc(O)cc2)cc1 [Example 3 (HBS), Bis-4-hydroxyphenoxydiphenylsulfone] | < 4.10
5 | O=P(c1ccccc1)(c1ccc(Oc2ccc(O)cc2)cc1)c1ccc(Oc2ccc(O)cc2)cc1 [Example 5 (HPPPO), Bis-4-hydroxyphenoxyphenylphosphine oxide] | < 3.60
